The source made the active and inactive calls. No rule for the calls is given here.
system: HeLa cells, increased 2N DNA content (cell cycle); experiment: HeLa 2N DNA content increase, dose response, cell-based, IC50 (AID 1117349)

Row | IC50 | SMILES
1 | 3.39 µM | C[n+]1c2cc(N)ccc2cc2ccc(N)cc21 (tested in a mixture with another compound)
2 | > 10 µM (inactive) | CCCCCCCCCCCCCC[N+](C)(C)C
3 | > 10 µM (inactive) | CCCCCCCCCCCC(=O)[O][Sn]([CH2]CCC)([CH2]CCC)[O]C(=O)CCCCCCCCCCC

Row | SMILES | IC50
4 | Cc1ccc([N+](=O)[O-])[c]2c1[O][Hg]2 | > 10 µM (inactive)

Source: PubChem BioAssay AID1117349
